Data on 3 compounds can be found in patent US12077503B2, “Substituted cyclic amides and their use as herbicides” (FMC CORPORATION, priority 2015, dated 2024).

Holding throughout (type): in vivo
Test [1] deals with sedge, umbrella (small-flower umbrella sedge, Cyperus difformis). Briefly: Test B flooded paddy test. Particulars: Cyperus difformis, Flood, 250 g ai/ha. Summed up:
(§1)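 Response scored visually against untreated controls, 0 = no effect and 100 = complete control, 13–15 d after treatment in the greenhouse. Compounds added to paddy water held 3 cm above soil surface. Treatment given at 2-leaf stage.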

For the next test, the system named is rice (Oryra sativa). Briefly: Test B flooded paddy test. Particulars: Oryza sativa, Flood, 250 g ai/ha. Summed up:
as §1

The subject of test [2] is ducksalad (Heteranthera limosa). Briefly: Test B flooded paddy test. Particulars: Heteranthera limosa, Flood, 250 g ai/ha. Summed up: as §1
Test [3] has as its system barnyardgrass (Echinochloa crus-galli). The experiment in a line: Test B flooded paddy test. The settings on record: Echinochloa crus-galli, Flood, 250 g ai/ha. Summed up: as §1
Test [4] relates to blackgrass (Alopecurus myosuroides). The experiment in a line: Test A postemergence. Particulars: Alopecurus myosuroides, post-emergence, 240 h, read-out: Plant response rating, Blackgrass; for pest or weed control at 125 g/ha: 125 g ai/ha. Summed up:
(§2)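 Visual injury scores from 0, no effect, to 100, complete control, were assigned versus untreated controls roughly 10 d after treatment in the greenhouse. Test chemicals, formulated with surfactant in a non-phytotoxic solvent, were applied to planted seeds as a preemergence soil spray or postemergence to one- to two-leaf plants 2 to 10 cm tall, in loam–sand soil.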

Another test has as its system corn (Zea mays). The experiment in a line: Test A postemergence. The settings on record: Zea mays, post-emergence, 240 h; for Corn plant response rating (crop injury, 0 = no effect, 100 = complete kill) at 125 g/ha: 125 g ai/ha. Summed up: as §2
In test [5] the test system is ragweed (common ragweed, Ambrosia elatior). The experiment in a line: Test A postemergence. Particulars: Ambrosia artemisiifolia, post-emergence, 240 h, read-out: Plant response rating, Ragweed; for pest or weed control at 125 g/ha: 125 g ai/ha. Summed up:
as §2

Test [6] has as its system Galium (catchweed bedstraw, Galium aparine). Briefly: Test A postemergence. The settings on record: Galium, post-emergence, 240 h, read-out: Plant response rating, Galium; for pest or weed control at 125 g/ha: 125 g ai/ha. Summed up: as §2
For test [7], the system named is wheat (Triticum aestivum). Briefly: Test A postemergence. The settings on record: Triticum aestivum, post-emergence, 240 h, read-out: Plant response rating, Wheat; for plant injury at 125 g/ha: 125 g ai/ha. Summed up:
as §2

For a further test, the system named is Kochia (Kochia scoparia). The experiment in a line: Test A postemergence. The settings on record: Bassia scoparia, post-emergence, 240 h, read-out: Plant response rating, Kochia; for pest or weed control at 125 g/ha: 125 g ai/ha. Summed up:
as §2

Test [8] relates to pigweed (Amaranthus retroflexus). The experiment in a line: Test A postemergence. Particulars: Amaranthus retroflexus, post-emergence, 240 h, read-out: Plant response rating, Pigweed; for pest or weed control at 125 g/ha: 125 g ai/ha. Summed up:
as §2

For test [9], the system named is ryegrass, Italian (Italian ryegrass, Lolium multiflorum). The experiment in a line: Test A postemergence. Particulars: Lolium multiflorum, post-emergence, 240 h, read-out: Plant response rating, Ryegrass, Italian; for pest or weed control at 125 g/ha: 125 g ai/ha. Summed up:
as §2

The subject of test [10] is barnyardgrass (Echinochloa crus-galli). Briefly: Test A postemergence. The settings on record: Echinochloa crus-galli, post-emergence, 240 h, read-out: Plant response rating, Barnyardgrass; for pest or weed control at 125 g/ha: 125 g ai/ha. Summed up: as §2
Test [11] has as its system giant foxtail (Setaria faberii). Briefly: Test A postemergence. Particulars: Setaria faberi, post-emergence, 240 h, read-out: Plant response rating, Foxtail, Giant; for pest or weed control at 125 g/ha: 125 g ai/ha. Summed up: as §2
The mark [12] stands for this setting: Postemergence, visual injury after approx. 10 d, 0 to 100 scale, 0 no effect, 100 complete control.
[13] abbreviates: Postemergence, 500 g ai/ha, visual injury, 0 to 100 scale (0 no effect, 100 complete control), approx. 10 d.
Setting [14] is: scale of 0 to 100 where 0 is no effect and 100 is complete control, read-out: Sedge, Umbrella plant response rating.
[15] abbreviates: scale of 0 to 100 where 0 is no effect and 100 is complete control, read-out: Rice plant response rating.
Where [16] appears, read: scale of 0 to 100 where 0 is no effect and 100 is complete control, read-out: Ducksalad plant response rating.
The mark [17] stands for this setting: scale of 0 to 100 where 0 is no effect and 100 is complete control, read-out: Barnyardgrass plant response rating.
Setting [18] is: postemergence, visual injury after approximately 10 d, 0 to 100 scale (0 no effect, 100 complete control).

Like-named read-outs stand apart in the source and are kept apart here.

On to `CSc1ccccc1NC(=O)[C@H]1C(=O)N(C)C[C@@H]1c1ccc(C(F)(F)F)cc1` [Compound 1391], for which the pest or weed control at 250 g/ha in test [1] (360 h, visually evaluated after 13 to 15 d, read-out: Plant response rating, Sedge, Umbrella (0 to 100 scale where 0 is no effect and 100 is complete control)) was 0%; in the test with rice (Oryra sativa) (360 h, visually evaluated after 13 to 15 d, read-out: Plant response rating, Rice (0 to 100 scale where 0 is no effect and 100 is complete control)), 0%; in test [2] (360 h, visually evaluated after 13 to 15 d, read-out: Plant response rating, Ducksalad (0 to 100 scale where 0 is no effect and 100 is complete control)) it was 75%; in test [3] (360 h, visually evaluated after 13 to 15 d, read-out: Plant response rating, Barnyardgrass (0 to 100 scale where 0 is no effect and 100 is complete control)), 0%. Moreover, the pest or weed control at 125 g/ha in test [4] (setting [12]) was 40%; in test [5] (setting [12]), 20%; in test [6] (setting [12]), 70%; in the test on Kochia (Kochia scoparia) (setting [12]) it was 70%; in [8] (setting [12]), 70%; in test [9] (setting [12]) it was 40%. Moreover, the pest or weed control at 125 g/ha in test [10] (setting [12]) and in test [11] (setting [12]) was 90% each time. In addition, the pest or weed control at 500 g/ha stood at 70% in test [4] (setting [13]); 60% in [5] (setting [13]); 70% in [6] (setting [13]); 80% in the test on Kochia (Kochia scoparia) (setting [13]); 90% in test [8] (setting [13]); 60% in [9] (setting [13]). For the same compound, the pest or weed control at 500 g/ha in [10] (setting [13]) worked out at 100%; in test [11] (setting [13]) it was 90%. Moreover, the Corn plant response rating (crop injury, 0 = no effect, 100 = complete kill) at 125 g/ha in the test with corn (Zea mays) (setting [12]) was determined as 0%. In the test with corn (Zea mays) (setting [13]), this compound registered a Corn plant response rating (crop injury, 0 = no effect, 100 = complete kill) at 500 g/ha of 80%. The plant injury at 125 g/ha in test [7] (setting [12]) is 30%. Moreover, the plant injury at 500 g/ha in test [7] (setting [13]) was 60%.

As for `O=C1NC[C@H](c2csc3ccccc23)[C@H]1C(=O)Nc1cccc(F)c1F` [Compound 751], the pest or weed control at 250 g/ha was determined as 0% in test [1] (setting [14]), 30% in the test with rice (Oryra sativa) (setting [15]), 100% in test [2] (setting [16]) and 40% in [3] (setting [17]). The pest or weed control at 125 g/ha turned out to be 20% in [4] (setting [18]); 0% in test [5] (setting [18]); 40% in test [6] (setting [18]); 0% in the test with Kochia (Kochia scoparia) (setting [18]); 0% in [8] (setting [18]); 0% in test [9] (setting [18]). The pest or weed control at 125 g/ha came to 60% in test [10] (setting [18]) and 30% in [11] (setting [18]). Also, the Corn plant response rating (crop injury, 0 = no effect, 100 = complete kill) at 125 g/ha in the test with corn (Zea mays) (setting [18]) is 0%. Besides, the plant injury at 125 g/ha in [7] (setting [18]) was 0%.

As to `CN1C[C@H](c2ccc(C#N)cc2)[C@@H](C(=O)Nc2cccc(F)c2F)C1=O` (racemic) [Compound 775], the pest or weed control at 250 g/ha turned out to be 65% in test [1] (setting [14]), 0% with rice (Oryra sativa) (setting [15]), 75% in test [2] (setting [16]) and 35% in test [3] (setting [17]). Moreover, the pest or weed control at 125 g/ha in [4] (setting [18]) was 0%; in [5] (setting [18]) it was 20%; in test [6] (setting [18]) it was 40%; with Kochia (Kochia scoparia) (setting [18]) it was 40%; in [8] (setting [18]) it was 0%; in test [9] (setting [18]), 20%. In addition, the pest or weed control at 125 g/ha is 50% in test [10] (setting [18]) and 60% in test [11] (setting [18]). In the test with corn (Zea mays) (setting [18]), this compound showed a Corn plant response rating (crop injury, 0 = no effect, 100 = complete kill) at 125 g/ha of 20%. For the same compound, the plant injury at 125 g/ha in test [7] (setting [18]) amounted to 20%.
